In this assay the test system is CD8F1 mice, subcutaneous mammary adenocarcinoma, T/C%. Description: NCI In Vivo Anticancer Drug Screen. Data for tumor model Mammary Adenocarcinoma CD8F1 (subcutaneous) in CD8F1. The conditions noted are these: higher = larger tumour. As to the method:
The antitumor activity of compounds was measured in mice bearing transplantable tumors. Survival or tumor size were measured and the results are expressed as the measurement made in the treated group (T) divided by the measurement made in the vehicle treated control group (C). The tumor model used in this assay is Mammary Adenocarcinoma CD8F1 (subcutaneous) in CD8F1

Where [1] appears, read: endpoint: median tumor weight change, dose: 62.5 mg/kg/injection, schedule: Q01DX001 (ip), vehicle: Klucel (hydroxypropylcellulose) (HPC).
[2] abbreviates: endpoint: median tumor weight change, dose: 125.0 mg/kg/injection, schedule: Q01DX001 (ip), vehicle: Klucel (hydroxypropylcellulose) (HPC).
The mark [3] stands for this setting: endpoint: median tumor weight change, dose: 125.0 mg/kg/injection, schedule: Q01DX001 (ip), vehicle: saline with Tween-80.

Results filed as inconclusive are left out.

Take `NC1(C(=O)O)CCCC1`: the T/C reads like this: (endpoint: mean tumor weight, dose: 5.0 mg/kg/injection, schedule: Q01DX009 (ip), vehicle: saline) 89 % of control; (endpoint: mean tumor weight, dose: 10.0 mg/kg/injection, schedule: Q01DX009 (ip), vehicle: saline) 30 % of control; (endpoint: mean tumor weight, dose: 12.5 mg/kg/injection, schedule: Q07DX005 (ip), vehicle: saline) 40 % of control; (endpoint: mean tumor weight, dose: 12.5 mg/kg/injection, schedule: Q07DX007 (ip), vehicle: saline) 104 % of control; (endpoint: mean tumor weight, dose: 20.0 mg/kg/injection, schedule: Q01DX009 (ip), vehicle: saline) 5 % of control; (endpoint: mean tumor weight, dose: 25.0 mg/kg/injection, schedule: Q07DX004 (ip), vehicle: saline) 81 % of control. In addition, the T/C (endpoint: mean tumor weight, dose: 25.0 mg/kg/injection, schedule: Q07DX005 (ip), vehicle: saline) is 122 % of control; the T/C (endpoint: mean tumor weight, dose: 25.0 mg/kg/injection, schedule: Q07DX007 (ip), vehicle: saline) was 123 % of control; the T/C (endpoint: mean tumor weight, dose: 25.0 mg/kg/injection, schedule: Q07DX008 (ip), vehicle: saline) was 119 % of control; the T/C (endpoint: mean tumor weight, dose: 50.0 mg/kg/injection, schedule: Q07DX004 (ip), vehicle: saline) was 6 % of control; the T/C (endpoint: mean tumor weight, dose: 50.0 mg/kg/injection, schedule: Q07DX005 (ip), vehicle: saline) was 9 % of control; the T/C (endpoint: mean tumor weight, dose: 50.0 mg/kg/injection, schedule: Q07DX007 (ip), vehicle: saline) was 5 % of control. Moreover, the T/C was 43 % of control (endpoint: mean tumor weight, dose: 50.0 mg/kg/injection, schedule: Q07DX008 (ip), vehicle: saline); 39 % of control (endpoint: median tumor weight (est.), dose: 25.0 mg/kg/injection, schedule: Q07DX005 (ip), vehicle: saline); 28 % of control (endpoint: median tumor weight (est.), dose: 50.0 mg/kg/injection, schedule: Q07DX005 (ip), vehicle: saline).
As to `Cc1ccc(C2NC(=O)c3ccccc3N2)s1` (stereo unspecified), the T/C is 82 % of control (endpoint: mean tumor weight, dose: 25.0 mg/kg/injection, schedule: Q07DX005 (ip), vehicle: Klucel (hydroxypropylcellulose) (HPC)); 88 % of control (endpoint: mean tumor weight, dose: 50.0 mg/kg/injection, schedule: Q07DX005 (ip), vehicle: Klucel (hydroxypropylcellulose) (HPC)); 106 % of control (endpoint: mean tumor weight, dose: 100.0 mg/kg/injection, schedule: Q07DX005 (ip), vehicle: Klucel (hydroxypropylcellulose) (HPC)); 105 % of control (endpoint: mean tumor weight, dose: 200.0 mg/kg/injection, schedule: Q07DX005 (ip), vehicle: Klucel (hydroxypropylcellulose) (HPC)); 123 % of control (endpoint: mean tumor weight, dose: 400.0 mg/kg/injection, schedule: Q07DX005 (ip), vehicle: Klucel (hydroxypropylcellulose) (HPC)); 78 % of control (endpoint: median tumor weight (est.), dose: 12.5 mg/kg/injection, schedule: Q07DX005 (ip), vehicle: Klucel (hydroxypropylcellulose) (HPC)). Also, the T/C by setting is: (endpoint: median tumor weight (est.), dose: 25.0 mg/kg/injection, schedule: Q07DX005 (ip), vehicle: Klucel (hydroxypropylcellulose) (HPC)) 14 % of control; (endpoint: median tumor weight (est.), dose: 50.0 mg/kg/injection, schedule: Q07DX005 (ip), vehicle: Klucel (hydroxypropylcellulose) (HPC)) 110 % of control.
For the compound `CCc1ccc(C2=C(O)C(=O)C(c3ccccc3)=C(O)C2=O)cc1`, the T/C was 84 % of control (endpoint: median tumor weight change, dose: 31.25 mg/kg/injection, schedule: Q01DX001 (ip), vehicle: Klucel (hydroxypropylcellulose) (HPC)); 106 % of control under setting [1]; 59 % of control under setting [2].
Turning to `CCCCCNc1ncnc2c(C)[nH]nc12`, the T/C under setting [1] is 101 % of control; the T/C under setting [2] was 89 % of control; the T/C (endpoint: median tumor weight change, dose: 250.0 mg/kg/injection, schedule: Q01DX001 (ip), vehicle: Klucel (hydroxypropylcellulose) (HPC)) is 71 % of control.
With `CC1=C[C@@]23[C@H](C=C(C(=O)O)[C@@H]2COC(=O)[C@]32CO2)[C@@H]1C`, the T/C reads like this: (endpoint: median tumor weight change, dose: 0.31 mg/kg/injection, schedule: Q01DX001 (ip), vehicle: saline) 116 % of control; (endpoint: median tumor weight change, dose: 0.62 mg/kg/injection, schedule: Q01DX001 (ip), vehicle: saline) 115 % of control; (endpoint: median tumor weight change, dose: 1.25 mg/kg/injection, schedule: Q01DX001 (ip), vehicle: saline) 98 % of control; (endpoint: median tumor weight change, dose: 2.5 mg/kg/injection, schedule: Q01DX001 (ip), vehicle: saline) 85 % of control; (endpoint: median tumor weight change, dose: 5.0 mg/kg/injection, schedule: Q01DX001 (ip), vehicle: saline) 100 % of control.
As to `COc1ccc2c(NCCCCCCCCNc3c4ccccc4nc4cc(OC)ccc34)c3ccccc3nc2c1`, the T/C (endpoint: median tumor weight (est.), dose: 0.47 mg/kg/injection, schedule: Q07DX005 (ip), vehicle: other) is 42 % of control; the T/C (endpoint: median tumor weight (est.), dose: 0.94 mg/kg/injection, schedule: Q07DX005 (ip), vehicle: other) was 63 % of control; the T/C (endpoint: median tumor weight (est.), dose: 1.87 mg/kg/injection, schedule: Q07DX005 (ip), vehicle: other) is 152 % of control; the T/C (endpoint: median tumor weight (est.), dose: 1.88 mg/kg/injection, schedule: Q07DX005 (ip), vehicle: other) was 50 % of control; the T/C (endpoint: median tumor weight (est.), dose: 3.75 mg/kg/injection, schedule: Q07DX005 (ip), vehicle: other) is 53 % of control; the T/C (endpoint: median tumor weight (est.), dose: 7.5 mg/kg/injection, schedule: Q07DX005 (ip), vehicle: other) was 36 % of control.
As for `CO[C@@]12[C@@H]3N[C@@H]3CN1C1=C(C(=O)C(NCC3CCCO3)=C(C)C1=O)[C@@H]2COC(N)=O` (stereo partly specified), the T/C (endpoint: median tumor weight change, dose: 6.25 mg/kg/injection, schedule: Q01DX001 (ip), vehicle: distilled water + Tween-80) is 44 % of control.
Consider `O=C1N[C@@H]([C@H]2CC[C@H](Cl)CN2)C(=O)N[C@H]1[C@H]1CC[C@H](Cl)CN1`, for which the T/C (endpoint: median tumor weight (est.), dose: 0.75 mg/kg/injection, schedule: Q07DX005 (ip), vehicle: saline) was 40 % of control; the T/C (endpoint: median tumor weight (est.), dose: 1.5 mg/kg/injection, schedule: Q07DX005 (ip), vehicle: saline) is 29 % of control; the T/C (endpoint: median tumor weight (est.), dose: 3.0 mg/kg/injection, schedule: Q07DX005 (ip), vehicle: saline) is 11 % of control.
Regarding `COc1cccc2c1C(=O)c1c(O)c3c(c(O)c1C2=O)C[C@@](O)(/C(C)=N\NC(=O)CO)C[C@@H]3OC1CC(N)C(O)C(C)O1` (stereo partly specified), the T/C is, setting by setting: (endpoint: mean tumor weight, dose: 1.0 mg/kg/injection, schedule: Q07DX006 (ip), vehicle: saline) 110 % of control; (endpoint: mean tumor weight, dose: 2.0 mg/kg/injection, schedule: Q07DX006 (ip), vehicle: saline) 207 % of control; (endpoint: mean tumor weight, dose: 4.0 mg/kg/injection, schedule: Q07DX006 (ip), vehicle: saline) 64 % of control; (endpoint: median tumor weight (est.), dose: 1.0 mg/kg/injection, schedule: Q07DX005 (ip), vehicle: saline) 85 % of control; (endpoint: median tumor weight (est.), dose: 2.0 mg/kg/injection, schedule: Q07DX005 (ip), vehicle: saline) 47 % of control; (endpoint: median tumor weight (est.), dose: 4.0 mg/kg/injection, schedule: Q07DX005 (ip), vehicle: saline) 104 % of control.
Take `O=C(O)C1Cc2nc[nH]c2CN1CO` (stereo unspecified): the T/C by setting is: under setting [3], 118 % of control; (endpoint: median tumor weight change, dose: 250.0 mg/kg/injection, schedule: Q01DX001 (ip), vehicle: saline with Tween-80) 94 % of control; (endpoint: median tumor weight change, dose: 500.0 mg/kg/injection, schedule: Q01DX001 (ip), vehicle: saline with Tween-80) 93 % of control; (endpoint: median tumor weight change, dose: 1000.0 mg/kg/injection, schedule: Q01DX001 (ip), vehicle: saline with Tween-80) 77 % of control; (endpoint: median tumor weight change, dose: 2000.0 mg/kg/injection, schedule: Q01DX001 (ip), vehicle: saline with Tween-80) 81 % of control.
As to `C=C1N(C)c2ccccc2C1(C)C`, under setting [3], the T/C was 115 % of control.
With `COc1ccc(CC2C(=O)NC(C)C(=O)N(C)C3Cc4ccc(cc4)Oc4cc(ccc4O)CC(C(=O)NC(C)C(=O)NC(C)C(=O)N2C)N(C)C3=O)cc1` (stereo unspecified), the T/C reads like this: (endpoint: median tumor weight change, dose: 1.25 mg/kg/injection, schedule: Q01DX001 (ip), vehicle: saline with Tween-80) 55 % of control; (endpoint: median tumor weight change, dose: 2.5 mg/kg/injection, schedule: Q01DX001 (ip), vehicle: saline with Tween-80) 111 % of control; (endpoint: median tumor weight change, dose: 5.0 mg/kg/injection, schedule: Q01DX001 (ip), vehicle: saline with Tween-80) 115 % of control; (endpoint: median tumor weight change, dose: 10.0 mg/kg/injection, schedule: Q01DX001 (ip), vehicle: saline with Tween-80) 56 % of control; (endpoint: median tumor weight change, dose: 20.0 mg/kg/injection, schedule: Q01DX001 (ip), vehicle: saline with Tween-80) 81 % of control.

(Values after PubChem BioAssay AID220 (DTP/NCI, 2004).)
